Assay results from PMC7607171, “Optimized low‐dose combinatorial drug treatment boosts selectivity and efficacy of colorectal carcinoma treatment” (Molecular Oncology, 2020).
Read-outs that look alike come from different tables or passages of the source.

How the values were obtained:
SW620 tumors = assay: Subcutaneous xenograft tumor growth; type: in vivo, Swiss nu/nu mice
Protocol: All procedures including animal use were performed in accordance with the Institutional Ethical Committee of Animal Care in Geneva and the Swiss Cantonal Veterinary Office (Authorization number GE‐136‐19). Briefly, female and male Swiss nu/nu mice aged 6–8 weeks were obtained from Charles River (Écully, France). For subcutaneous xenografts mice were inoculated in the left flank with 5x10^6 DLD1 or SW620 cells suspended in 100 µL of cell culture medium, supplemented with 1% FBS. Treatment was initiated when palpable tumors had formed (approximately 30 mm^3) on day 4 for DLD1 and day 5 for the SW620 model.
Treatment was initiated once tumor growth was confirmed with bioluminescence measurements. Drugs were administered through oral gavage based on average body weight of the males (100 µL/mouse) and females (80 µL/mouse) at various concentrations, see Tables S10 and S11.
Solution A: step (1) 30% PEG 400 + 5% propylene glycol + 0.5% Tween 80 and (2) 64.5% sterile H2O. Solution B: step (1) 10% DMSO, (2) 30% PEG 300 + 5% Tween 80 and (3) 55% sterile H2O. Vemurafenib was prepared 2x concentrated (half or three/sixth of total solution), and the remaining drugs were prepared 6x concentrated (one/sixth of total solution), after which drugs were diluted to prepare 1x drug concentrations for the ODC or single drugs using the other drugs or complete solvent solutions without drugs for lower concentrations. FOLFOX was administered as 6 mg/kg oxaliplatin two hours before administration of 90 mg/kg leucovorin and 50 mg/kg (DLD1) or 25 mg/kg (SW620) 5‐fluorouracil at day 1 and a repeat of 5‐fluorouracil dosing on day 2.
The Bliss independence model can be used to evaluate the drug interaction potential of a drug mixture. The model is based on the principle that each drug has an independent drug mechanism of action, but all contribute to a common result (e.g., cell death or tumor volume inhibition). The model is based on the probability theory and requires the drug activity of each drug at the selected dose to predict the inhibition rate (IR) at additive doses. For in vivo tumor volume results, we predicted the IR based on the fraction of tumor volume remaining after single‐drug treatment of each of the drugs vs 100% CTRL (F1,2,3,4), using the following formula: IR = […].

[1] = 0-24h, oral, cited from earlier work
HCT116 cells = assay: Tunneling nanotubule (TNT) quantification, F-actin/DAPI staining; type: cell-based, human
SW620 cells = assay: CellTiter-Glo metabolic ATP activity assay, 2D culture; type: cell-based, human; settings: low-dose single drug (hormetic dose effect)
Protocol: Drugs were dissolved in DMSO and stored at −80, and aliquots were thawn prior to each use. Drugs were dissolved at concentrations resulting in in vitro experimental conditions 0.15% DMSO maximum in the culture medium. […] The 48‐hour retreatment was performed by adding another volume of media containing a 1x concentration of drugs to not affect the final concentration in the wells.
Drug treatment activity in 2D and 3D cultures was measured using the CellTiter‐Glo® cell metabolic activity (ATP) assays (G7572 and G9683, Promega, Madison, WI, USA), according to the manufacturer`s instructions. Assay bioluminescence was detected using the BioTek Cytation 3 and corresponding Gen5 Image software version 3.04 at standard settings.
The next step is the drug combination screening in Search 1 (11 drugs in 155 combinations) according to the OACD resolution IV matrix and performed in the CRC and the nonmalignant CCD841CoN cell simultaneously. The resulting output of the drug combination activity was measured in cell metabolic activity (ATP levels, % CTRL) to represent cell viability and consisted of the average of technical triplicate values. The experimental data points are then used for step‐wise second‐order linear regression analysis by Matlab®. This model mathematically describes the relationship between the drug combination input and output activity of each possible two‐drug combination. […]

[2] = regorafenib 30 mg/kg, Exp 4, Day 22
[3] = regorafenib 30 mg/kg, Exp 6, Day 20
[4] = regorafenib 30 mg/kg, Exp 8, Day 19
[5] = selumetinib 0.2 mg/kg, Exp 6, Day 20
[6] = selumetinib 0.2 mg/kg, Exp 8, Day 19
[7] = selumetinib 1 mg/kg, Exp 4, Day 22
[8] = selumetinib 10 mg/kg, Exp 4, Day 22
[9] = vemurafenib 75 mg/kg, Exp 6, Day 20

**Q.** With CNC(=O)c1cc(Oc2ccc(NC(=O)Nc3ccc(Cl)c(C(F)(F)F)c3)c(F)c2)ccn1 [regorafenib] as the compound, how does the “% CTRL (tumor volume)” value (SW620 tumors; [2]) read?
**A.** 117 45 20 % CTRL

**Q.** And the Volume (SW620 tumors; [2])?
**A.** 567 220 98 mm^3

**Q.** What about the “% CTRL (tumor volume)” value (SW620 tumors; [3]) of the same compound?
**A.** 90 78 35 % CTRL

**Q.** What about the Volume (SW620 tumors; [3]) of the same compound?
**A.** 468 407 182 mm^3

**Q.** And the “% CTRL (tumor volume)” value (SW620 tumors; [4])?
**A.** 44 18 10 % CTRL

**Q.** What about the Volume (SW620 tumors; [4]) of the same compound?
**A.** 278 111 64 mm^3

**Q.** And the AUC ([1]; 160 mg/kg, 3 wk on/ 1 wk off, ref 12)?
**A.** 50260 ng·h/mL

**Q.** What about the AUC ([1]; 160 mg/kg, 3 wk on/ 1 wk off, ref 13) of the same compound?
**A.** 58300 ng·h/mL

**Q.** For Cn1cnc2c(F)c(Nc3ccc(Br)cc3Cl)c(C(=O)NOCCO)cc21 [selumetinib], which “% CTRL (tumor volume)” value (SW620 tumors; [5]) is on record?
**A.** 76 41 21 % CTRL

**Q.** And the Volume (SW620 tumors; [5])?
**A.** 393 214 107 mm^3

**Q.** What about the “% CTRL (tumor volume)” value (SW620 tumors; [6]) of the same compound?
**A.** 93 5 3 % CTRL

**Q.** What about the Volume (SW620 tumors; [6]) of the same compound?
**A.** 588 30 21 mm^3

**Q.** And the “% CTRL (tumor volume)” value (SW620 tumors; [7])?
**A.** 67 55 24 % CTRL

**Q.** And the Volume (SW620 tumors; [7])?
**A.** 323 265 118 mm^3

**Q.** What about the “% CTRL (tumor volume)” value (SW620 tumors; [8]) of the same compound?
**A.** 43 20 9 % CTRL

**Q.** And the Volume (SW620 tumors; [8])?
**A.** 209 95 43 mm^3

**Q.** Which results are given for CCCS(=O)(=O)Nc1ccc(F)c(C(=O)c2c[nH]c3ncc(-c4ccc(Cl)cc4)cc23)c1F [vemurafenib]?
**A.** % CTRL (tumor volume) (SW620 tumors; [9]): 65 42 21 % CTRL; Volume (SW620 tumors; [9]): 337 219 109 mm^3; % CTRL (tumor volume) (SW620 tumors; vemurafenib 75 mg/kg, Exp 8, Day 19): 94 48 58 % CTRL; cells forming tunneling nanotubules (TNTs, > 10 µm) (HCT116 cells; single drug (CTRL 9.5%)): 14.0%; TNT length (HCT116 cells; single drug (CTRL 21 µm), nonsignificant): 32 µm; effect on cell viability (SW620 cells): increased cell viability; AUC ([1]; 960 mg/kg twice daily): 131000 ng·h/mL; AUC ([1]; 960 mg/kg twice daily, ref EPAR 002409): 21100 ng·h/mL
